The values below come from US20170281611A1, “QUINOLINES AND THEIR USE FOR TREATING ENDOPLASMIC RETICULUM STRESS-CAUSED DISEASES” (EIGER BIOPHARMACEUTICALS, INC., priority 2014, published 2017).

Read-outs that look alike come from different tables or passages of the source.

Data set [1] concerns CSM14.1 cells. The data set can be described thus: ER stress cell survival assay (thapsigargin, […]-GLO). The data set is classed as cell-based. The following applies: dose-response. The protocol:
CSM14.1 cells were maintained in Complete Medium at 32° C.; wherein the Complete Medium contained Dulbecco's modified eagle medium (DMEM) with 10% fetal bovine serum (FSB), 1% L-glutamine, 100 IU/mL penicillin, and 100 μg/mL streptomycin. The cells were recovered from cultures by trypsinization and then seeded in 384 well plates (Greiner #781098) at a concentration of 1,000 cells/well in 20 μL of DMEM Assay Medium, wherein the DMEM Assay Medium contained 2% FBS, 100 IU/mL penicillin, and 100 μg/mL streptomycin. Seeding was performed using a MultiDrop Combi reagent broadcaster. The plates were incubated overnight at 32° C.
A test compound was prepared by 2-fold serial dilution in 100% DMSO using a BIOMEK® 2000 liquid handler (Beckman Coulter). A dose-response curve containing 10 concentrations of the test compound was obtained. Using a BIOMEK® FX liquid handler (Beckman Coulter), 2.5 μL of the test compound was transferred from the 100% DMSO serial dilution plate to an intermediate plate containing 47.5 μL of DMEM Assay Medium containing 2% FBS, 100 IU/mL penicillin, and 100 μg/mL streptomycin and mixed. To reduce or eliminate the interference from the compound's precipitation, 6 μL of the diluted compound was immediately transferred to the assay plate to achieve a high compound concentration of 100 μM in 99% DMEM Assay Medium and 1% DMSO. After the assay plates were incubated for 2 hrs, 4 μL of 112.5 μM thapsigargin (TG) (DMSO stock diluted into Assay TC Medium) was dispensed into each testing well with a MultiDrop Combi reagent broadcaster for a final concentration of about 15 μM TG. The tissue culture media (4 μL) containing vehicle only was transferred manually to each control cell using a 16 channel electronic pipette. […] High luminescence indicates cell survival.
Alternatively, a test compound was tested at a single compound concentration (e.g., 2 μM) to determine the effect of the compound on cell survival in comparison with vehicle.

Data set [2] deals with SERCA. The data set can be described thus: Activation of SERCA, increase in Vmax (SR type not given). It is filed as biochemical.
Data set [3] concerns the target T1, SERCA, cardiac SR.
T1 construct: 2 mg or 7 mg of SR vesicles (optimized for skeletal or cardiac SR, respectively); from tissue; host or cells: cardiac sarcoplasmic reticulum vesicles
The data set can be described thus: Activation of SERCA, NADH-linked enzyme-coupled ATPase assay, cardiac SR. The following applies: read-out: CSR EC50. The data set is classed as biochemical.
Method: Test compounds were characterized over a range of concentrations using an NADH-linked, enzyme-coupled ATPase assay. Each well contained 2 mg or 7 mg of SR vesicles (optimized for skeletal or cardiac SR, respectively), 50 mM MOPS (pH 7.0), 100 mM KCl, 5 mM MgCl2, 1 mM EGTA, 0.2 mM NADH, 1 mM phosphoenol pyruvate, 5 IU pyruvate kinase, 5 IU lactate dehydrogenase, and 3.5 mg/mL A23187 (a calcium ionophore), and CaCl2 was added to set free [Ca2+] to the specific values. The assay was started upon addition of ATP at a final concentration of 5 mM, and read in a SpectraMax Plus microplate spectrophotometer and the ATPase activities were fitted using the Hill function.

Data set [4] is described as follows: Pharmacokinetics in Sprague Dawley rats (Table 4). Particulars: rat; for AUC(0-inf) / AUC(0-t) / Cmax / Tmax / clearance / half-life / MRT inf / Vd: Sprague Dawley, in vivo; for MRT inf: read-out: MRT0-∞; for Vd: read-out: Vz; for F: PO (10 mg/kg) vs IV (2 mg/kg). The data set is classed as in vivo. An excerpt:
Compound D1 was formulated in 0.3% DMA/1% SOLUTOL®/98.7% saline. Compound D6 was formulated in 0.5% DMA/1% SOLUTOL®/94.5% 0.01N HCl in saline/4% NaOH (pH 4-5).

The subject of data set [5] is BT474 Cells. Nature of the data set: In vitro anticancer activity, monolayers (2D) and spheroids (3D), BT474. The following applies: Homo sapiens. It is filed as cell-based. On the procedure:
(§1) The anticancer activity of a test compound was determined in vitro using mammalian tumor cells that grew as monolayers and spheroids. Spheroids represent the three-dimensional growth and organization of solid tumors, and thus are an intermediate model between monolayers of cells in culture and tumors in vivo. The cancer cell line tested was a breast cancer cell line, BT474. Normal breast tissue cells (MCF10A) were used as a control. The viability/proliferation of the cells were measured using […]-GLO® reagent.

Data set [6] has as its system MCF10A Cells. The data set can be described thus: In vitro viability, monolayers (2D) and spheroids (3D), normal breast tissue cells. The data set is classed as cell-based. Particulars: Homo sapiens, MCF-10A. The protocol:
as §1

For data set [7], the system named is SERCA. Nature of the data set: Ca-ATPase assay, microsomal preparations from HEK 293 cells. It is filed as biochemical, human. The protocol: A Ca-ATPase assay was performed using microsomal preparations from HEK 293 cells at a series of calcium concentrations corresponding to the physiological range, relative to controls. The ATP hydrolysis rate was measured over a range of calcium concentrations in the presence of test compounds using an NADH-linked, enzyme-coupled ATPase assay adapted for 96-well microplates, with Vmax determined by fitting the ATPase calcium-dependence to the Hill function. […] CaCl2 was added to set free [Ca^2+] to the specific values.

The nature of data set [8]: Pharmacokinetics in Beagle dogs (Table 5). The data set is classed as in vivo. Particulars: dog, PO (10 mg/kg) vs IV (1 mg/kg), based on AUC0-t. The protocol:
For pharmacokinetic evaluation, 3 male Beagle dogs were intravenously (IV) dosed (1 mg/kg body weight) and 3 male Beagle dogs were orally (PO) dosed (10 mg/kg body weight) with a test compound. Blood (approximately 1.0 mL) was collected via femoral vein into tubes containing K3EDTA anticoagulant at 0, 0.017, 0.083, 0.5, 1, 2, 4, 6, 8, and 24 hours post-dosing. Plasma samples were analyzed by LC-MS/MS. The analytical results were confirmed using quality control samples for intra-assay variation. The accuracy of >66% of the quality control samples was between 80-120% of the known value(s). A standard set of pharmacokinetic parameters were generated from concentration data including Area Under the Curve (AUC0-t and AUC0-inf), elimination half-lives, clearances, volume of distribution and bioavailabilities (based on AUC0-t), maximum plasma concentration (C0; Cmax), and time to reach maximum plasma concentration (Tmax).

Data set [9] concerns 6-OHDA lesioned Wistar rats. Nature of the data set: Rat unilateral 6-OHDA model of Parkinson's disease, stepping test. It is filed as in vivo. Particulars: D11, 10 mg/kg IP once daily for 15 days, t test. On the procedure: Fifty adult male Wistar rats were used. The rats from different groups (G1 to G5) were randomized. At the beginning of the study, the rats were about 5 weeks old and naive to previous administration of any drug.
A stereotaxic injection of 6-OHDA (G2 to G5) or saline (G1: sham group) was performed to induce a unilateral dopaminergic lesion on day 0 (D0). Surgery was performed on D0 under ketamine (50 mg/kg) and xylazine (10 mg/kg). The rats of G2 to G5 received a unilateral injection of 6-OHDA (6 μL) in the left substantia nigra pars compacta. Jouve et al., J. Neurosci. 2010, 30, 9919-9928. The rats of the G1 sham group were injected with saline. During surgery, local analgesia was achieved using subcutaneous injections of lidocaine. At the end of surgery, the rats were treated with buprenorphine (0.05 mg/kg, S.C.).
The stepping test was performed after IT test, both before the 6-OHDA lesion induction on D0 and on D11. Around D−6, the stepping test was performed eight consecutive times for the right paw of each animal to obtain baseline values. On D11, the stepping test was performed one hour after the rats were dosed. Each rat was hold by an experimenter and only one of the two forelimbs was left free to move above a plane surface and the other was held with the paw touching the table. The rats were then to be moved slowly forward by the experimenter. The number of adjusting steps was countered for the right paw. Olsson et al., J. Neurosci. 1995, 15, 3863-3875.
L-DOPA and benserazide (a peripheric DOPA decarboxylase inhibitor) were prepared together as a single solution containing 0.9% NaCl and 0.1% ascorbic acid.
All the dosings were given via the IP route, once daily, Sunday excluded.

Usually EC50 stands for the concentration that produces a half-maximal response. What is called AUC(0-inf) is total exposure, with the tail of the curve extrapolated. A high value points to high exposure. What is called AUC(0-t) is exposure summed from dosing to a finite time, without extrapolation to infinity. Higher therefore signals high exposure. What is called Cmax is the peak of the concentration-time curve. For orientation: Tmax means the time from dosing to the highest level. A word on the clearance: it is the volume of plasma or blood freed of the substance per unit of time. The half-life is how long it takes for the measured level to halve. The low end stands for fast loss, the high end for slow loss. The term IC50 denotes the concentration needed to halve the response being measured.

T1 sequence (P16615 1-997 isoform P16615-2): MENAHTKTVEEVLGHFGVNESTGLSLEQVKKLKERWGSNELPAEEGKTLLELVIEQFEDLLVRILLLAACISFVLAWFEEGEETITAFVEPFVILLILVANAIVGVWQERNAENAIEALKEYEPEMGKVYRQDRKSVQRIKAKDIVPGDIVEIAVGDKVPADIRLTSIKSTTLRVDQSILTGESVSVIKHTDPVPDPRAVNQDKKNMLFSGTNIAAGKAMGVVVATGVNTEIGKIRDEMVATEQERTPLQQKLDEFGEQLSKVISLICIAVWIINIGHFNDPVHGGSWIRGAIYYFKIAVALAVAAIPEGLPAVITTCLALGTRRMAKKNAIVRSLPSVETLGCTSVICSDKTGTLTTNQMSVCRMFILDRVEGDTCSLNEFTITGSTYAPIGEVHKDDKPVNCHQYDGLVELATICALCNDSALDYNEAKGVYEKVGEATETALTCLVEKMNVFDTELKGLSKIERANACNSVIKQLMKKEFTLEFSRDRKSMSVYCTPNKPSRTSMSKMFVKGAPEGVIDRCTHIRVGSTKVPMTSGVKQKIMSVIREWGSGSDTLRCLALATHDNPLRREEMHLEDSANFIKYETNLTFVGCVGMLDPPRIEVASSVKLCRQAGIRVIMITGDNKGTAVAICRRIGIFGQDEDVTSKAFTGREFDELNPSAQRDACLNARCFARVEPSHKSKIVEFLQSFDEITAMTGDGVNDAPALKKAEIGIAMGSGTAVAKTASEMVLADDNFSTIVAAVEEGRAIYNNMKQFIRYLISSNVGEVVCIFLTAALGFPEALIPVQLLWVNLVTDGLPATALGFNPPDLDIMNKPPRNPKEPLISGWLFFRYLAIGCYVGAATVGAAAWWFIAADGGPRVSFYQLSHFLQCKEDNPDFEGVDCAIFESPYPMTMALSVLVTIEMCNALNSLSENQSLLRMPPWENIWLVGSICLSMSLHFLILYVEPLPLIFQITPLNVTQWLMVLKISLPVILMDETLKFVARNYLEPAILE

In data set [1], `Cc1ccc2cccc(NC(=O)c3ccc(O)cc3)c2n1` [Compound J2, 4-Hydroxy-N-(2-methylquinolin-8-yl)benzamide] displayed an EC50 of under 20 µM. The “Increase in Vmax at 10 μM” value in data set [2] was “A′ (A′ represents an increase greater than 50%)”.
Take `Cc1ccc(C(=O)N2CCN(c3ccnc4cc(Cl)ccc34)CC2)cc1Cl` [Compound D5, (3-Chloro-4-methylphenyl)(4-(7-chloroquinolin-4-yl)piperazin-1-yl)methanone]: the concentration for a half-maximal effect (EC50) in data set [1] is under 20 µM.
The same measure, in the same setting: in the case of `O=C(c1cccc(Cl)c1)N1CCN(c2ccnc3cc(Cl)ccc23)CC1` [Compound D3, (3-Chlorophenyl)(4-(7-chloroquinolin-4-yl)piperazin-1-yl)methanone] it was 20 to 100 µM.
In data set [1], `CCNc1ccc(C(=O)Nc2cccc3ccc(C)nc23)cc1` [Compound J1, 4-(Ethylamino)-N-(2-methylquinolin-8-yl)benzamide] returned an EC50 of under 20 µM. Also, in data set [2], the “Increase in Vmax at 10 μM” value is “A′ (A′ represents an increase greater than 50%)”.
For `CC(C)Oc1ccc(C(=O)Nc2cccc3cccnc23)cc1` [Compound A11, 4-Isopropoxy-N-(quinolin-8-yl)benzamide], the EC50 in data set [3] was under 20 µM.
For `O=C(C1CC1)N1CCN(c2ccnc3cc(Cl)ccc23)CC1` [Compound D7], the EC50 in data set [1] is under 20 µM.
Regarding `O=C(c1ccccc1F)N1CCN(c2ccnc3cc(Cl)ccc23)CC1` [Compound D2, (4-(7-Chloroquinolin-4-yl)piperazin-1-yl)(2-fluorophenyl)methanone], the EC50 in [1] was under 20 µM. In [4] (IV (2 mg/kg)), the AUC(0-inf) was found to be 1840 ± 209 ng·h/mL, the AUC(0-t) came to 1790 ± 187 ng·h/mL, the Cmax is 7.59 ± 0.55 µM and the Tmax stood at 0.017 h. For the same molecule, in [4] (IV (2 mg/kg)), the clearance is 18.3 mL/min/kg, the half-life is 1.77 ± 0.33 h, the MRT inf was 1.57 ± 0.22 h and the Vd was 2.76 ± 0.22 L/kg. Further, in data set [4] (PO (10 mg/kg)), the total exposure AUC(0-inf) is 8060 ± 3220 ng·h/mL, the AUC(0-t) was determined as 7890 ± 3320 ng·h/mL, the concentration peaked (Cmax) at 7.33 ± 12.5 µM and the time to peak (Tmax) is 0.42 ± 0.14 h. Further, in data set [4] (PO (10 mg/kg)), the half-life is 1.76 ± 0.66 h and the MRT inf came out at 2.88 ± 1.21 h. The molecule also gave a F in data set [4] of 88%.
For `CCN(CC)CCNC(=O)c1c(C)[nH]c(/C=C2\C(=O)Nc3ccc(F)cc32)c1C` [Sutent, reference compound], the IC50 in [5] (BT-474, monolayers (2D), read-out: IC50 (2D)) was determined as 10 µM; in data set [5] (BT-474, spheroids (3D), read-out: IC50 (3D)) it was 10 µM; in data set [6] (monolayers (2D), read-out: IC50 (2D)), 3 µM; in data set [6] (spheroids (3D), read-out: IC50 (3D)) it was 7 µM.
In [1], `Cc1ccc(C(=O)N2CCN(c3ccnc4cc(Cl)ccc34)CC2)cc1` [Compound D4, (4-(7-Chloroquinolin-4-yl)piperazin-1-yl)(p-tolyl)methanone] displayed an EC50 of 20 to 100 µM.
As for `O=C(c1ccccc1)N1CCN(c2ccnc3cc(Cl)ccc23)CC1` [Compound D1, (4-(7-Chloroquinolin-4-yl)piperazin-1-yl)(phenyl)methanone], in data set [1], the EC50 was in the range of 20 to 100 µM. In addition, in data set [4] (IV (2 mg/kg)), the AUC(0-inf) was 5900 ± 454 ng·h/mL, the AUC(0-t) amounted to 5880 ± 453 ng·h/mL, the Cmax worked out at 18.6 ± 1.33 µM and the Tmax is 0.02 h. In addition, in data set [4] (IV (2 mg/kg)), the clearance is 5.67 mL/min/kg, the half-life is 3.21 ± 0.39 h, the MRT inf is 2.98 ± 0.17 h and the Vd amounted to 1.57 ± 0.2 L/kg. In [4] (PO (10 mg/kg)), the AUC(0-inf) is 162000 ± 11900 ng·h/mL, the AUC(0-t) turned out to be 24600 ± 4100 ng·h/mL, the Cmax was found to be 15.3 ± 3.86 µM and the Tmax was determined as 0.58 ± 0.38 h. Moreover, in data set [4] (PO (10 mg/kg)), the half-life was 2.76 ± 0.69 h and the MRT inf is 3.93 ± 0.41 h. In addition, in [4], the F is listed as 84%.
In the case of `Cc1ccc2cccc(NC(=O)c3ccc(C(C)(C)C)cc3)c2n1` [Compound A4, 4-(tert-Butyl)-N-(2-methylquinolin-8-yl)benzamide], in [3], the EC50 is under 20 µM.
`Cc1ccc2cccc(NC(=O)c3cccc(OC(C)C)c3)c2n1` [Compound A13, 3-Isopropoxy-N-(2-methylquinolin-8-yl)benzamide]: in [7], the “Vmax of a SERCA” value is listed as “significantly increased”. This molecule also came in with a F in data set [8] of 1.4%.
On to `Cc1ccc2cccc(NC(=O)c3ccc(Br)s3)c2n1` [Compound B1, 5-Bromo-N-(2-methylquinolin-8-yl)thiophene-2-carboxamide], for which, in data set [9], the “number of adjusting steps” value is “statistically significant increase”.
`O=C(Nc1cccc2cccnc12)c1cccc(F)c1` [Compound A7, 3-Fluoro-N-(quinolin-8-yl)benzamide]: the EC50 in [3] was under 20 µM.
